Measured values: patent US20260035364A1, “BICYCLIC TETRAHYDROTHIAZEPINE DERIVATIVES” (Hoffmann-La Roche Inc., priority 2022, published 2026)
pEC50: −log10 of the molar value.

Tested on: primary human T-cells
Assay: IL2 secretion measurements in CD3-stimulated T-cells
Assay type: cell-based
Details: Homo sapiens, T-cell, 24 h, CD3 condition; for Emax: IL2 after 24 hours, 20 μM reference compound A1 = 100%, read-out: Emax IL2 (% activation); for pEC50: IL2 secretion after 24 hours, read-out: Tcell IL2 CD3 EC50
Procedure: As readouts for T-cell activation, IL2 secretion after 24 hours and proliferation after 5 days was measured. Increases in IL2 secretion and proliferation upon compound treatment were assessed as the % of the maximum of reference compound A1. WO 2016/139181 discloses reference compound A1 as example 70. As a counter screen and to make sure that no unwanted TCR-independent activation was triggered, PBS conditions were run for all compounds.
Expanded primary human T-cells were thawed and cultured in RPMI 1640 (Gibco, #61870-010)+5% human serum (HS, Sigma, #H3667)+1 mM Sodium Pyruvate (Gibco, #11360-039)+50 μM 2-mercaptoethanol (Gibco, #31350-010) and 1× Pen-Strep (Life Technologies, #15140122) medium at density of 2 Mio/ml for 3 hours in 5% CO2, 37° C. and 95% humidity. For coating of plates, […] or PBS++ with CD3 antibody (concentration depending on donor and determined by CD3 titrations) was added 100 μl/well to Poly-D Lysine coated 96-well plates. Plates were sealed and incubated at room temperature for 3 hours on a table-top rocking platform. After incubation, plates were washed once with PBS−− and filled with 40 μl/well culture medium only. Compounds were then added (see next section) to medium only plates. After 3 hours of culturing the T-cells, cells were filtered through a cell strainer (Miltenyi Biotech, #130-041-407), counted again and concentration was adjusted to 1.25 Mio/ml.
Cells were then seeded 80 μl/well to the 40 μl/well including dispensed compounds according to plate layout. By adding cells, compounds were further diluted 1:3, and resulting in 100k cells/120 µl/well. After 24 hours 40 μl of supernatant was collected carefully from the top while not disturbing the cells and transferred into a round bottom 96 well plate. Collected and frozen supernatant was used for detection of IL2 using the IL-2 Human ProQuantum Immunoassay Kit (Invitrogen) or using the Human IL-2 ELISA Kit (Thermo Fisher).
Compound Treatment Compounds were added in a 5 or 6 pt dose response with the Tecan D300e Digital Dispenser, all conditions 3 times more concentrated than the end-concentration, since cells are added afterwards (80p1 cells to 40p1 prepared medium with treatment). The DR was starting at 20 μM or 10 μM final top concentration and a dilution factor of 3.333. The positive control was the reference compound A1 that was added in a dose response as well, additionally to 3 wells of only 20 μM representing the positive stimulator control. All wells were normalized with DMSO to a final concentration of 0.6% (0.2% end-concentration).
The immunoassay is done following the manufacturer's manual (Invitrogen, #A35603).
Additional information: For the immunoassay, MicroAmp™ EnduraPlate™ Optical 384-Well plates are used. Frozen supernatant is thawed and centrifuged for 5 minutes at 1000×g, both steps at 4° C. After centrifugation, required sample amount is taken from the top, and in a separate LightCycler V-bottom plate (working plate) diluted with assay dilution buffer, dilution factor depending on the PBS or CD3 condition but at least 1:3. IL-2 standard and blanks are prepared in the same V-bottom plate, standard with a range of 0.0128-5000 pg/ml (extended version). After preparation, 5 μl of sample dilutions or standard/blanks are transferred to the optical 384-well plate (assay plate) and the 10 μl reaction protocol is being followed. For measurement, the QuantStudio 12K Flex system is used. Raw data is extracted and IL-2 concentrations are calculated with the Thermo Fisher online app (apps.thermofisher.com/apps/proquantum).
ELISA is done following the manufacturer's manual (Thermo Fisher Scientific, #88-7025-88). Additional information: For the ELISA Nunc MaxiSorp 96 well plates are used. Frozen supernatant is thawed and centrifuged for 5 minutes at 1000×g, both steps at 4° C. […]

SMILES	Emax	pEC50
CC(C)(c1nnc(-c2ccc3c(c2)N(Cc2ccc(Oc4cccc(Br)c4)cc2)C(=O)[C@@H](N)CS3(=O)=O)o1)S(C)(=O)=O [Example 60, (3R)-3-amino-5-[[4-(3-bromophenoxy)phenyl]methyl]-7-[5-(1-methyl-1-methylsulfonyl-ethyl)-1,3,4-oxadiazol-2-yl]-1,1-dioxo-2,3-dihydro-1λ6,5-benzothiazepin-4-one]	106%	5.93
CC(C)(c1nnc(-c2cc3c(cc2F)S(=O)(=O)C[C@H](N)C(=O)N3Cc2ccc(OC(F)(F)C(F)F)cc2)o1)S(C)(=O)=O [Example 26, (3R)-3-amino-8-fluoro-7-[5-(1-methyl-1-methylsulfonyl-ethyl)-1,3,4-oxadiazol-2-yl]-1,1-dioxo-5-[[4-(1,1,2,2-tetrafluoroethoxy)phenyl]methyl]-2,3-dihydro-1λ6,5-benzothiazepin-4-one]	159%	6.26
CC(C)(c1nnc(-c2ccc3c(c2)N(Cc2ccc(-c4noc(C(F)(F)F)n4)cc2)C(=O)[C@@H](N)CS3(=O)=O)o1)S(C)(=O)=O [Example 17, (3R)-3-amino-7-[5-(1-methyl-1-methylsulfonyl-ethyl)-1,3,4-oxadiazol-2-yl]-1,1-dioxo-5-[[4-[5-(trifluoromethyl)-1,2,4-oxadiazol-3-yl]phenyl]methyl]-2,3-dihydro-1λ6,5-benzothiazepin-4-one]	153%	5.47
COc1ccc(-c2ccc(CN3C(=O)[C@@H](N)CS(=O)(=O)c4ccc(-c5noc(C(C)(C)S(C)(=O)=O)n5)cc43)cc2)cc1 [Example 63, (3R)-3-amino-5-[[4-(4-methoxyphenyl)phenyl]methyl]-7-[5-(1-methyl-1-methylsulfonyl-ethyl)-1,2,4-oxadiazol-3-yl]-1,1-dioxo-2,3-dihydro-1λ6,5-benzothiazepin-4-one]	57%	6.42
CC(C)(c1nnc(-c2ccc3c(c2)N(Cc2ccc(Oc4cccc(F)c4)cc2)C(=O)[C@@H](N)CS3(=O)=O)o1)S(C)(=O)=O [Example 33, (3R)-3-amino-5-[[4-(3-fluorophenoxy)phenyl]methyl]-7-[5-(1-methyl-1-methylsulfonyl-ethyl)-1,3,4-oxadiazol-2-yl]-1,1-dioxo-2,3-dihydro-1λ6,5-benzothiazepin-4-one]	58%	6.24
CCC(CC)Oc1ccc(CN2C(=O)[C@@H](N)CS(=O)(=O)c3ccc(-c4nnc(C(C)(C)S(C)(=O)=O)o4)cc32)cc1 [Example 19, (3R)-3-amino-5-[[4-(1-ethylpropoxy)phenyl]methyl]-7-[5-(1-methyl-1-methylsulfonyl-ethyl)-1,3,4-oxadiazol-2-yl]-1,1-dioxo-2,3-dihydro-1λ6,5-benzothiazepin-4-one]	54%	5.06
CC(C)(c1nnc(-c2ccc3c(c2)N(Cc2ccc(OC(F)(F)F)cc2)C(=O)[C@@H](N)CS3(=O)=O)o1)S(C)(=O)=O [Example 64, (3R)-3-amino-7-[5-(1-methyl-1-methylsulfonyl-ethyl)-1,3,4-oxadiazol-2-yl]-1,1-dioxo-5-[[4-(trifluoromethoxy)phenyl]methyl]-2,3-dihydro-126,5-benzothiazepin-4-one]	55%	5.60
CC(C)(c1nc(-c2cc3c(cc2F)S(=O)(=O)C[C@H](N)C(=O)N3Cc2ccc(OC(F)(F)F)cc2)no1)S(C)(=O)=O [Example 44, (3R)-3-amino-8-fluoro-7-[5-(1-methyl-1-methylsulfonyl-ethyl)-1,2,4-oxadiazol-3-yl]-1,1-dioxo-5-[[4-(trifluoromethoxy)phenyl]methyl]-2,3-dihydro-1λ6,5-benzothiazepin-4-one]	192%	6.49
CN(Cc1ccccc1)c1ccc(CN2C(=O)[C@@H](N)CS(=O)(=O)c3ccc(-c4nnc(C(C)(C)S(C)(=O)=O)o4)cc32)cc1 [Example 15, (3R)-3-amino-5-[[4-[benzyl(methyl)amino]phenyl]methyl]-7-[5-(1-methyl-1-methylsulfonyl-ethyl)-1,3,4-oxadiazol-2-yl]-1,1-dioxo-2,3-dihydro-1λ6,5-benzothiazepin-4-one]	99%	5.45
COc1ccc(-c2ccc(CN3C(=O)[C@@H](N)CS(=O)(=O)c4cc(F)c(-c5noc(C(C)(C)S(C)(=O)=O)n5)cc43)cc2)cc1 [Example 50, (3R)-3-amino-8-fluoro-5-[[4-(4-methoxyphenyl)phenyl]methyl]-7-[5-(1-methyl-1-methylsulfonyl-ethyl)-1,2,4-oxadiazol-3-yl]-1,1-dioxo-2,3-dihydro-1λ6,5-benzothiazepin-4-one]	99%	6.67
CC(C)(c1nnc(-c2ccc3c(c2)N(Cc2ccc(-c4ccc(C(F)(F)F)cc4)cc2)C(=O)[C@@H](N)CS3(=O)=O)o1)S(C)(=O)=O [Example 56, (3R)-3-amino-7-[5-(1-methyl-1-methylsulfonyl-ethyl)-1,3,4-oxadiazol-2-yl]-1,1-dioxo-5-[[4-[4-(trifluoromethyl)phenyl]phenyl]methyl]-2,3-dihydro-1λ6,5-benzothiazepin-4-one]	120%	6.13
CC(C)(c1nc(-c2cc3c(cc2F)S(=O)(=O)C[C@H](N)C(=O)N3Cc2ccc(Oc3ccccc3)cc2)no1)S(C)(=O)=O [Example 30, (3R)-3-amino-8-fluoro-7-[5-(1-methyl-1-methylsulfonyl-ethyl)-1,2,4-oxadiazol-3-yl]-1,1-dioxo-5-[(4-phenoxyphenyl)methyl]-2,3-dihydro-1λ6,5-benzothiazepin-4-one]	265%	6.31
CC(C)(c1nnc(-c2ccc3c(c2)N(Cc2ccc(Oc4cccc(C(F)(F)F)c4)cc2)C(=O)[C@@H](N)CS3(=O)=O)o1)S(C)(=O)=O [Example 38]	155%	6.37
Cc1cccc(Oc2ccc(CN3C(=O)[C@@H](N)CS(=O)(=O)c4ccc(-c5nnc(C(C)(C)S(C)(=O)=O)o5)cc43)cc2)c1 [Example 31]	176%	6.13
CC(C)(c1nnc(-c2cc3c(cc2F)S(=O)(=O)C[C@H](N)C(=O)N3Cc2ccc(Cl)cc2)o1)S(C)(=O)=O [Example 2, (3R)-3-amino-5-[(4-chlorophenyl)methyl]-8-fluoro-7-[5-(1-methyl-1-methylsulfonyl-ethyl)-1,3,4-oxadiazol-2-yl]-1,1-dioxo-2,3-dihydro-1λ6,5-benzothiazepin-4-one]	94%	6.48
CC(C)(c1nnc(-c2ccc3c(c2)N(Cc2ccc(Oc4ccccc4)cc2)C(=O)[C@@H](N)CS3(=O)=O)o1)S(=O)(=O)C1CC1 [Example 61, (3R)-3-amino-7-[5-(1-cyclopropylsulfonyl-1-methyl-ethyl)-1,3,4-oxadiazol-2-yl]-1,1-dioxo-5-[(4-phenoxyphenyl)methyl]-2,3-dihydro-1λ6,5-benzothiazepin-4-one]	89%	5.38
CC(C)(c1nnc(-c2ccc3c(c2)N(Cc2ccc(-c4ccc(C(F)(F)F)cc4)nc2)C(=O)[C@@H](N)CS3(=O)=O)o1)S(C)(=O)=O [Example 57, (3R)-3-amino-7-[5-(1-methyl-1-methylsulfonyl-ethyl)-1,3,4-oxadiazol-2-yl]-1,1-dioxo-5-[[6-[4-(trifluoromethyl)phenyl]-3-pyridyl]methyl]-2,3-dihydro-1λ6,5-benzothiazepin-4-one]	53%	5.04
CC(C)(c1nnc(-c2ccc3c(c2)N(Cc2ccc(-c4ccc(C(F)(F)F)cn4)cc2)C(=O)[C@@H](N)CS3(=O)=O)o1)S(C)(=O)=O [Example 10]	174%	5.75
